Experimental data taken from US20170016037A1, “Method for Increasing the Solubility of Methionine by Mineral Addition and Acid Treatment” (CJ CHEILJEDANG CORPORATION, priority 2009, published 2017).
Read-outs that look alike come from different tables or passages of the source.

Columns and labels:
[1] = pH 2; cited from earlier work
[2] = cited from earlier work
[3] = cited from earlier work; for solubility in the aqueous solution: generally

SMILES | solubility of DL-methionine with acid treatment [1] | solubility of DL-methionine with use of mineral ([2]; U.S. Pat. No. 5,430,164, mineral) | solubility in the aqueous solution [3] | result of the same experiment using DL-methionine (as Example 1 (manganese sulfide, 0.1 M sulfuric acid; 50% solution), DL-methionine 99% Sigma) | result of the same experiment using DL-methionine (as Example 2 (zinc sulfide, 0.1 M sulfuric acid; 50% solution)) | result of the same experiment using DL-methionine (as Example 3 (3.75% minerals, 0.1 M sulfuric acid; 50% solution)) | result of the same experiment using DL-methionine (as Example 4 (1.88% minerals, 0.1 M sulfuric acid; 50% solution)) | methionine solution concentration (L-methionine crystal powder purified to 99% or more from fermentation/enzymatic conversion solution, same manner as Examples 1 to 4) [%] | solubility of L-methionine (L-methionine-containing solution produced by fermentation and enzymatic conversion reaction) | maximum methionine solution concentration ([2]; U.S. Pat. No. 5,430,164, total 3.5 to 3.9 M minerals (3.35 M zinc sulfate, 0.167 to 0.569 M ferric chloride), 1 L) [%] | solubility of methionine in water ([3]; room temperature, generally known) [mg/mL] | methionine solubility maximized by combination of mineral addition and acid addition (summary statement, mineral amount less than 15% of the method used before) [%]
CSCCC(N)C(=O)O (racemic) [DL-methionine] | 18 % (w/v) | up to 12 % (w/v) | about 5 % (w/v) | identical results | identical results | identical results | identical results |  |  |  |  | 
CSCC[C@H](N)C(=O)O [L-methionine] |  |  | about 5 % (w/v) |  |  |  |  | ≥ 50 | up to 35% |  |  | 
CSCC[C@H](N)C(=O)O (racemic) [methionine] |  |  |  |  |  |  |  |  |  | ≤ 50 | 50 to 55 | 50
